Measurements from a melting point compilation (Tetko et al.; mined from patent text by program, amines drawn as free bases though some values may be those of a salt).

Row | Structure (SMILES) | melting point
1 | O=C(Nc1ccc(-c2ccccc2)cc1C(=O)O)OCc1ccc(-c2ccccc2)cc1 | 234 to 236 °C
2 | NC(=O)CNC(=O)c1cccc(-c2cccc3cc(Cc4cccc(CO)c4)sc23)c1 | 155 to 156 °C
3 | O=C(OCCN1CCOCC1)c1cn2c(n1)COc1ccccc1-2 | 142 to 143 °C
4 | C#CCn1nc(-c2cc(C(C)(C)C)c(O)c(C(C)(C)C)c2)c2cccnc21 | 172 to 174 °C
5 | CCCc1nc(C=O)cc(N)c1F | 113 to 114 °C
6 | Cn1cc(-c2ccccc2)c(=O)c(-c2cccc(S(C)(=O)=O)c2)c1 | 176 to 181 °C
7 | CCCC(=O)CS(N)(=O)=O | 117 °C
8 | Cc1[nH]c(Cl)c(C#N)c1SC(F)(Cl)Cl | 187 °C
9 | Cc1nnc2c(C(C)Br)ccnn12 (configuration not stated) | 125 to 128 °C
10 | C=CCOC(=O)c1ccc(-c2ccc3cc(C(=O)OCC)c(C45CC6CC(CC(C6)C4)C5)cc3c2OCCCCC)cc1 | 116 to 117 °C
11 | Cc1nc(C2(C)CC2(Cl)Cl)nn1-c1c(Cl)cc(C(F)(F)F)cc1Cl (configuration not stated) | 107 to 116 °C
12 | N#CC(C#N)=C1N(CCCN2CCCC2)CCN1CCN1CCCC1 | 70 to 71 °C
13 | O=c1ccc2cccc(-c3cccc4ccccc34)c2[nH]1 | 198 to 199 °C
14 | O=C(C#Cc1cccc(OCc2ccccc2)c1)c1ccccc1 | 75 to 77 °C
15 | CN=C(NC#N)N1CCc2nc(N)sc2C1 | 231 to 234 °C
16 | O=C1c2ccccc2C(=O)N1CCCOc1cccc(CN2CCOCC2)c1 | 90 to 93 °C
17 | O=C(O)CCC(=O)CCS | 40 to 42 °C
18 | Cc1ccn(-c2ccc(S(N)(=O)=O)cc2)c1-c1ccc(F)cc1 | 187 to 188 °C
19 | CC(=O)CCCc1c[nH]c2ccccc12 | 89 to 90 °C
20 | COC(=O)C1=C(N(c2ccccc2)c2ccccc2)CC(C(=O)OC)=C(N(c2ccccc2)c2ccccc2)C1 | 236 to 238 °C
21 | CC(C)OC(=O)c1cn(-c2cccnc2)cn1 | 130 to 131 °C
22 | COC(=O)Cc1cc(Cl)c2c(c1)CCC(c1ccccc1)N2C (configuration not stated) | 78 to 80 °C
23 | CCOC(=O)c1cn(-c2ccc(F)cc2F)c2c(F)c(F)c(F)c(F)c2c1=O | 160 to 162 °C
24 | O=C(Cc1cccc2ccccc12)Nc1cc([C@H]2C[C@@H](NC(=O)CC3CC3)C2)[nH]n1 | 93.2 °C
25 | Oc1cc(-c2ccccc2)nc2nn(-c3ccccc3)cc12 | 280 to 281 °C

Row | Structure (SMILES) | melting point
26 | COCCNCc1ccccc1Oc1ccc(-c2cn(C3CCOC3)c3ncnc(N)c23)cc1 (configuration not stated) | 66 to 68 °C
27 | O=C(O)C1C(c2ccc3c(c2)OCO3)c2ccccc2C1c1ccc2c(c1)OCO2 (racemic) | 182 to 185 °C
28 | Cc1oc(-c2ccccc2)nc1COc1ccc(CON=C(CCCCC(=O)O)c2ccccc2)cc1 | 101 to 102 °C
29 | OCCN(Cc1ccccc1)CC1(O)CCN(CCCc2c[nH]c3ccc(-n4cnnc4)cc23)CC1 | 75 to 78 °C
30 | CCN1CCCC1Cc1cccc(NC(N)=O)c1 (configuration not stated) | 114 to 116 °C
31 | CCOc1cc2c(cc1OCC)[C@@H]1CCCC[C@@H]1N=C2c1ccc(O)nc1 (racemic) | 211 to 213 °C
32 | CC1(C)C(Br)C(=O)C1CC(Cl)(Cl)Cl (configuration not stated) | 56 °C
33 | O=c1[nH][nH]c(=O)c2c(O)c3ccc([N+](=O)[O-])cc3nc12 | > 400 °C
34 | Cc1ccc(S(=O)C(C(=O)OC(C)(C)C)C(O)c2ccc(Oc3ccccc3)cc2)cc1 (configuration not stated) | 126 to 128 °C
35 | C=Cc1cc(C)cc(C)c1CC(=O)N(O)C1(C(=O)OC)CCN(OC)CC1 | 177 to 179 °C
36 | Cc1nc(N2CCN(Cc3ccccc3)C2=O)sc1C(=O)NCc1ccc(F)c(F)c1 | 152 to 153 °C
37 | O=C1CC2c3c(Br)cccc3CCC23OCC(c2ccccc2)N13 (configuration not stated) | 123 to 126 °C
38 | C/C(=C\c1ccc(NC(=O)c2cc([Si](C)(C)C)cc([Si](C)(C)C)c2)cc1F)C(=O)O | 213 to 215 °C
39 | CN1CCN(C(=O)c2cc([N+](=O)[O-])cc3c2OCCO3)CC1 | 218 °C
40 | Cc1cc(C)c(OP(Oc2c(C)cc(C)cc2C)Oc2c(C)cc(C)cc2C)c(C)c1 | 92 to 95 °C
41 | O=C(O)c1c(-c2cccc([N+](=O)[O-])c2)oc2ncnc(O)c12 | > 300 °C
42 | O=P(Cc1ccccc1O)(c1ccccc1)c1ccccc1 | 179 °C
43 | CCOC(=O)c1c(C)nc(S)c([N+](=O)[O-])c1NCCCN(C)C | 131 to 132 °C
44 | ClCc1c(-c2ccccc2)c(-c2ccccc2)nn1-c1ccccc1 | 122 °C
45 | COC(=O)C1=C(C)Nc2nccn2C1C1CCCCC1 (configuration not stated) | 178 °C
46 | CCOC(=O)/C=C/c1oc2cccc(O)c2c1C | 180 to 182 °C
47 | Oc1ncnc2c1c(Nc1cccc(Cl)c1)nn2Cc1ccccc1 | 148 to 150 °C
48 | COc1ccc(N2C(=O)N(c3cccc(C(N)=O)c3)c3nc(Nc4ccccc4)ncc3C2C)cc1 (configuration not stated) | 268 to 273 °C
49 | COc1ccc(S(=O)(=O)Nc2ccccc2NC(=O)c2cccnc2Cl)cc1 | 133 to 135 °C
50 | O=C1NCCc2ccc(OCCCCN3CCN(c4cccc(Cl)c4Cl)CC3)cc2N1 | 185 to 186 °C

Row | Structure (SMILES) | melting point
51 | CSCC(C)(C)N(C(=O)c1c(I)cccc1C(N)=O)c1ccc(Cn2nnn(-c3ccc(C(F)(F)F)cc3)c2=O)cc1C | 83 to 87 °C
52 | C[Si](C)(C)c1cc(Cl)sc1C(=O)NCCCl | 68 to 72 °C
53 | COC(=O)CCc1cc2cc(Cl)ccc2n1S(=O)(=O)c1ccc(C(C)C)cc1 | 90 to 94 °C
54 | Cc1cccc(Cl)c1NC(=O)Nc1cc(N[C@H]2CC[C@H](O)CC2)ncn1 | 149 to 152 °C
55 | CC(C)(C)OC(=O)N1CCc2c(C=O)c3ccccc3n2CC1 | 167 to 168 °C
56 | C=Cc1cn([C@@H]2O[C@H](C)[C@@H](OC(C)=O)[C@H]2OC(C)=O)c(=O)nc1N | 198 to 199 °C
57 | NS(=O)(=O)c1ccc(-c2cccc(-c3nc(-c4ccc(C(F)(F)F)cc4)cc(C(F)F)n3)c2)s1 | 240 °C
58 | COc1nsc2nc3ccccc3n12 | 172 to 175 °C
59 | CC(C)(C)OC(=O)N1CCC(c2ccc(N3C[C@H](CO)OC3=O)cc2F)CC1 | 120 to 122 °C
60 | CCCCCCCCCCOc1cc(OCCCOc2ccc(OCc3ccccc3)cc2)cc(C(=O)OC)c1 | 68 to 70 °C
61 | CCCCCCCCCC(Oc1ccc(C2=CCCCCC2)cc1)C(=O)O (configuration not stated) | 79 to 81 °C
62 | CC(=O)OCC1=C(C(=O)O)N2C(=O)C(NC(=O)Cc3ccc(CN=[N+]=[N-])cc3)C2SC1 (configuration not stated) | 135 to 136 °C
63 | CCCCCCCNC(=O)Nc1ccc(N(C)C)cc1C(=O)NCC1CCCN(C(c2ccccc2)c2ccccc2)C1 (configuration not stated) | 142 to 144 °C
64 | CN1CCN(c2cccc(NC(=O)c3ccc(-c4ccncc4)cc3)c2)CC1 | 232 to 233 °C
65 | N#Cc1c(SSc2ccc([N+](=O)[O-])cc2C(Cl)(Cl)Cl)ccc2ccccc12 | 170 °C
66 | COc1ccc2ccc(OC)c3c2c1CCC3CCNC(C)=O (configuration not stated) | 125 °C
67 | Cn1ccnc1N1CCC(c2ccc([N+](=O)[O-])cc2)CC1 | 155 to 156 °C
68 | CN(C)CCCCNc1ncc2c(n1)-c1ccccc1C(c1cccc(Br)c1)C2 (configuration not stated) | 115 to 117 °C
69 | COc1cc(Nc2nccc(-c3ccc(NC(C)=O)cc3)n2)cc(OC)c1OC | 239 °C
70 | N#Cc1ccc(-c2ccc3nncn3n2)cc1 | 272 to 274 °C
71 | Cc1ccccc1C(=C1CN(C(c2ccccc2)c2ccccc2)C1)S(C)(=O)=O | 218 °C
72 | CN1CCN(c2ccc(-c3cnc4[nH]cc(C(=O)C5(C)CCCCC5)c4n3)cc2)CC1 | 225 to 226 °C
73 | COc1cc2c3ccc(OC)c(OC)c3n(C(=O)c3ccc4ccccc4c3)c2cc1OC | 137 to 141 °C
74 | Cc1oc(-c2ccco2)nc1COc1ccc(CON=C(CCCCCCC(=O)O)c2ccccc2)cc1 | 75 to 77 °C
75 | COCCCCc1cccc(C2(c3ccc(OC(F)F)cc3)N=C(N)N(C)C2=O)c1 (configuration not stated) | 36 to 39 °C

Row | Structure (SMILES) | melting point
76 | COc1cc2c3ccc(OC)c(OC)c3n(S(=O)(=O)c3ccccc3)c2cc1OC | 205 to 206 °C
77 | Cc1cc(Oc2ccc(N)cc2)c2ncccc2c1 | 184 to 185 °C
78 | OCCc1cnc(Nc2n[nH]c3ccc(-c4ncccc4Cl)cc23)s1 | 206 to 208 °C
79 | CC(=O)OCC1OC(n2ccc(=O)[nH]c2=O)C(OC(C)=O)C1OC(C)=O (configuration not stated) | 129 to 130 °C
80 | COCSc1nccn1-c1cccc(C2=Nc3ccc(-c4ccccc4F)cc3NC(=O)C2)c1 | 189 to 190 °C
81 | COc1ccc(C(O)(c2ccc(OC)cc2)C2CCN(CCC3CN(C)C(=O)O3)CC2)cc1 (configuration not stated) | 145 to 147 °C
82 | O=C1c2cccc(NCc3ccccc3)c2C(=O)c2cccc(NCc3ccccc3)c21 | 218 to 220 °C
83 | COc1ccnc(CCc2nc3cc(-c4ccc(S(=O)(=O)N5CCN(Cc6ccccc6)CC5)cc4)cnc3[nH]2)c1 | 160 to 162 °C
84 | CC(C)(S)C(NC(=O)c1ccc(Cl)cc1)C(=O)O (configuration not stated) | 174 °C
85 | COc1ccc(C=CC(=O)Nc2ccc(C(C)(C)C)cc2)cc1 | 158 to 160 °C
86 | COc1ccc2cc(C(C)C(=O)OCc3ccc(OC(=O)OCC[Si](C)(C)C)cc3)ccc2c1 (configuration not stated) | 58 to 59 °C
87 | COc1ccc2c(Cc3c(Cl)cncc3Cl)nnc(CO)c2c1 | 190 to 195 °C
88 | NS(=O)(=O)c1cc2ccc(=O)[nH]c2s1 | 306 to 308 °C
89 | CCCCCCCCCCCc1nnc2n1-c1sc(CC)cc1C(c1ccc(OC)cc1)OC2 (configuration not stated) | 91 to 93 °C
90 | CNCC1Cc2cc(C(F)(F)F)cc(-c3cccc(F)c3F)c2O1 (configuration not stated) | 123 to 125 °C
91 | Nc1ccn(C2CC(O)C(CO)O2)c(=O)c1F (configuration not stated) | 161 to 163 °C
92 | CSc1c(CC(=O)O)n(Cc2ccc(Cl)cc2)c2ccc(CF)cc12 | 136 to 140 °C
93 | O=C(Nc1ccccc1)C1=CNCCC1 | 209 to 212 °C
94 | CCC(C)(C)Nc1c(NCc2ccc(F)cc2)c(=O)c1=O | 255 to 257 °C
95 | O=S(=O)(NCC1CCN(C[C@H]2COc3ccc(Cl)cc3O2)CC1)c1ccc(F)cc1F | 119 to 121 °C
96 | Nc1cc(C(F)(F)F)cnc1Cl | 94 to 95 °C
97 | Cc1cc(NC(=O)N2CCc3cc(N(C)C)ccc32)c2ccccc2n1 | 252 to 253 °C
